What was measured:
Assay type in all cases: cell-based
E coli NCTC 10418 [1] = assay: MIC, human bacteria, serial dilution in nutrient agar; details: nutrient agar containing 5% 'chocolated' horse blood
E coli ESS = assay: as above; details: nutrient agar containing 5% 'chocolated' horse blood
P mirabilis 889 = assay: as above; details: nutrient agar containing 5% 'chocolated' horse blood
K aerogenes A = assay: as above; details: nutrient agar containing 5% 'chocolated' horse blood
Ps aeruginosa 10662 = assay: as above; details: nutrient agar containing 5% 'chocolated' horse blood
[2] = tested on: Pasteurella multocida 1633; assay: as above; details: nutrient agar containing 5% 'chocolated' horse blood
[3] = tested on: Haemophilus influenzae Q1; assay: as above; details: nutrient agar containing 5% 'chocolated' horse blood
[4] = tested on: Haemophilus influenzae Wy21; assay: as above; details: nutrient agar containing 5% 'chocolated' horse blood
[5] = tested on: Neisseria catarrhalis 1502; assay: as above; details: Neisseria catarrhalis 1502 (footnote a); nutrient agar containing 5% 'chocolated' horse blood
Bacillus subtilis 6633 = assay: as above; details: nutrient agar containing 5% 'chocolated' horse blood
Staph aureus Oxford [6] = assay: as above; details: nutrient agar containing 5% 'chocolated' horse blood
Staph aureus Russell = assay: as above; details: nutrient agar containing 5% 'chocolated' horse blood
Staph aureus W2827 = assay: as above; details: nutrient agar containing 5% 'chocolated' horse blood
Strep faecalis I = assay: as above; details: nutrient agar containing 5% 'chocolated' horse blood
Strep pyogenes A 64/848 = assay: as above; details: nutrient agar containing 5% 'chocolated' horse blood
Strep pyogenes B 2788 = assay: as above; details: nutrient agar containing 5% 'chocolated' horse blood
Strep pyogenes C 2761 = assay: as above; details: nutrient agar containing 5% 'chocolated' horse blood
Strep pneumoniae CN33 = assay: as above; details: nutrient agar containing 5% 'chocolated' horse blood
E coli NCTC 10418 [7] = assay: MIC, veterinary bacteria; details: veterinary bacteria (Table 2)
E coli E1 = assay: MIC, veterinary bacteria; details: veterinary bacteria (Table 2)
S dublin S7 = assay: MIC, veterinary bacteria; details: veterinary bacteria (Table 2)
S typhimurium S18 = assay: MIC, veterinary bacteria; details: veterinary bacteria (Table 2)
Bord bronchiseptica BO8 = assay: MIC, veterinary bacteria; details: veterinary bacteria (Table 2)
Bord bronchisptica BO9 = assay: MIC, veterinary bacteria; details: veterinary bacteria (Table 2)
Past multocida PA1 = assay: MIC, veterinary bacteria; details: veterinary bacteria (Table 2)
Past multocida PA2 = assay: MIC, veterinary bacteria; details: veterinary bacteria (Table 2)
Past Haemolytica PA5 = assay: MIC, veterinary bacteria; details: veterinary bacteria (Table 2)
[8] = tested on: Erysipelothrix rhusiopathiae NCTC 8163; assay: MIC, veterinary bacteria; details: veterinary bacteria (Table 2)
[9] = tested on: Corynebacterium pyogenes CY1; assay: MIC, veterinary bacteria; details: veterinary bacteria (Table 2)
[10] = tested on: Staph aureus B4 (pen resis); assay: MIC, veterinary bacteria; details: veterinary bacteria (Table 2)
[11] = tested on: Staph aureus 152 (pen sens); assay: MIC, veterinary bacteria; details: veterinary bacteria (Table 2)
Staph aureus Oxford [12] = assay: MIC, veterinary bacteria; details: veterinary bacteria (Table 2)
[13] = tested on: Strep suis (group D) SPS11; assay: MIC, veterinary bacteria; details: veterinary bacteria (Table 2)
Strep uberis SPU1 = assay: MIC, veterinary bacteria; details: veterinary bacteria (Table 2)
Strep dysgalaciae SPD1 = assay: MIC, veterinary bacteria; details: veterinary bacteria (Table 2)
Strep agalactiae SPA1 = assay: MIC, veterinary bacteria; details: veterinary bacteria (Table 2)
M. suipneumoniae NB12 = assay: MIC, anti-mycoplasmal, Friis broth solidified with 0.9% agarose; details: inoculum 10^3 to 10^5 C.F.U., 6 days incubation at 37°C
M. suipneumoniae JF 435 = assay: as above; details: inoculum 10^3 to 10^5 C.F.U., 6 days incubation at 37°C
M. suipneumoniae HK(2) = assay: as above; details: inoculum 10^3 to 10^5 C.F.U., 6 days incubation at 37°C
M. suipneumoniae Str. 11 = assay: as above; details: inoculum 10^3 to 10^5 C.F.U., 6 days incubation at 37°C
[14] = tested on: M. suipneumoniae J2206/183b; assay: as above; details: inoculum 10^3 to 10^5 C.F.U., 6 days incubation at 37°C
M. suipneumoniae MS 16 = assay: as above; details: inoculum 10^3 to 10^5 C.F.U., 6 days incubation at 37°C
[15] = tested on: M. suipneumoniae PW/C/210; assay: as above; details: inoculum 10^3 to 10^5 C.F.U., 6 days incubation at 37°C
M. suipneumoniae LABER = assay: as above; details: inoculum 10^3 to 10^5 C.F.U., 6 days incubation at 37°C
M. suipneumoniae UCD 1 = assay: as above; details: inoculum 10^3 to 10^5 C.F.U., 6 days incubation at 37°C
M. suipneumoniae TAM 6N = assay: as above; details: inoculum 10^3 to 10^5 C.F.U., 6 days incubation at 37°C
[16] = tested on: M. suipneumoniae ATCC 25095; assay: as above; details: inoculum 10^3 to 10^5 C.F.U., 6 days incubation at 37°C
[17] = tested on: M. suipneumoniae NCTC 10110; assay: as above; details: inoculum 10^3 to 10^5 C.F.U., 6 days incubation at 37°C
M. hyorhinis ATCC 23234 = assay: as above; details: inoculum 10^3 to 10^5 C.F.U., 6 days incubation at 37°C
M. hyorhinis ATCC 25021 = assay: as above; details: inoculum 10^3 to 10^5 C.F.U., 6 days incubation at 37°C
[18] = tested on: M. hyosynoviae ATCC 25591; assay: as above; details: inoculum 10^3 to 10^5 C.F.U., 6 days incubation at 37°C
M. bovis NCTC 10131 = assay: microbe, parasite or virus in culture; details: M. bovis NCTC 10131; inoculum 10^3 to 10^5 C.F.U., 6 days incubation at 37°C
[19] = tested on: M. bovigenitalium ATCC 14173; assay: MIC, anti-mycoplasmal, Friis broth solidified with 0.9% agarose; details: inoculum 10^3 to 10^5 C.F.U., 6 days incubation at 37°C
M. dispar NCTC 10125 = assay: as above; details: inoculum 10^3 to 10^5 C.F.U., 6 days incubation at 37°C
M. gallisepticum S6 = assay: as above; details: inoculum 10^3 to 10^5 C.F.U., 6 days incubation at 37°C
M. pneumoniae ATCC 15492 = assay: as above; details: inoculum 10^3 to 10^5 C.F.U., 6 days incubation at 37°C

In the case of 5-Acetylpentyl monate A [Example 7], the MIC (E coli NCTC 10418 [1]) is reported as over 100 µm/ml, the MIC (E coli ESS) is reported as 0.5 µm/ml and the MIC (P mirabilis 889) is reported as over 100 µm/ml. The MIC (K aerogenes A) was over 100 µm/ml, the MIC (Ps aeruginosa 10662) was over 100 µm/ml and the MIC [2] was 0.5 µm/ml. For the same substance, the MIC [3] was 0.2 µm/ml, the MIC [4] was 0.1 µm/ml and the MIC [5] was “^a0.5 µm/ml”. The MIC (Bacillus subtilis 6633) was 0.5 µm/ml, the MIC (Staph aureus Oxford [6]) was 1.0 µm/ml and the MIC (Staph aureus Russell) was 1.0 µm/ml. The MIC (Staph aureus W2827) was 2.5 µm/ml, the MIC (Strep faecalis I) was over 100 µm/ml and the MIC (Strep pyogenes A 64/848) was 0.5 µm/ml. For the same substance, the MIC (Strep pyogenes B 2788) was 2.5 µm/ml, the MIC (Strep pyogenes C 2761) was 2.5 µm/ml and the MIC (Strep pneumoniae CN33) was 0.5 µm/ml. For the same substance, the MIC (E coli NCTC 10418 [7]) was 80 µg/mL, the MIC (E coli E1) was over 80 µg/mL and the MIC (S dublin S7) was over 80 µg/mL. The MIC (S typhimurium S18) was over 80 µg/mL, the MIC (Bord bronchiseptica BO8) was 40 µg/mL and the MIC (Bord bronchisptica BO9) was 5 µg/mL. The MIC (Past multocida PA1) was “.625 µg/mL”, the MIC (Past multocida PA2) was “.312 µg/mL” and the MIC (Past Haemolytica PA5) was 5 µg/mL. For the same substance, the MIC [8] was 40 µg/mL, the MIC [9] was over 80 µg/mL and the MIC [10] was “.625 µg/mL”. For the same substance, the MIC [11] was “.625 µg/mL”, the MIC (Staph aureus Oxford [12]) was “.625 µg/mL” and the MIC [13] was 5 µg/mL. For the same substance, the MIC (Strep uberis SPU1) was “.156 µg/mL”, the MIC (Strep dysgalaciae SPD1) was “.312 µg/mL” and the MIC (Strep agalactiae SPA1) was “.625 µg/mL”. For the same substance, the “in vitro MIC” value (M. suipneumoniae NB12) was 0.25 µg/mL, the “in vitro MIC” value (M. suipneumoniae JF 435) was 0.25 µg/mL and the “in vitro MIC” value (M. suipneumoniae HK(2)) was 0.5 µg/mL. The “in vitro MIC” value (M. suipneumoniae Str. 11) was 0.25 µg/mL, the “in vitro MIC” value [14] was 0.5 µg/mL and the “in vitro MIC” value (M. suipneumoniae MS 16) was 0.25 µg/mL. The “in vitro MIC” value [15] was 0.25 µg/mL, the “in vitro MIC” value (M. suipneumoniae LABER) was 0.25 µg/mL and the “in vitro MIC” value (M. suipneumoniae UCD 1) was 0.5 µg/mL. For the same substance, the “in vitro MIC” value (M. suipneumoniae TAM 6N) was 0.5 µg/mL, the “in vitro MIC” value [16] was 0.25 µg/mL and the “in vitro MIC” value [17] was 0.5 µg/mL. The “in vitro MIC” value (M. hyorhinis ATCC 23234) was 0.1 µg/mL, the “in vitro MIC” value (M. hyorhinis ATCC 25021) was 0.1 µg/mL and the “in vitro MIC” value [18] was 0.025 µg/mL. For the same substance, the “in vitro MIC” value (M. bovis NCTC 10131) was under 0.01 µg/mL, the “in vitro MIC” value [19] was 0.025 µg/mL and the “in vitro MIC” value (M. dispar NCTC 10125) was 0.05 µg/mL. The “in vitro MIC” value (M. gallisepticum S6) was 2.5 µg/mL and the “in vitro MIC” value (M. pneumoniae ATCC 15492) was 0.5 µg/mL.

Source: EP0025288A1, “Derivatives of monic acid, processes for their preparation, compositions containing them and their preparation” (priority 1979, dated 1981)
